Consider 18 compounds from patent US20230011652A1, “COMPOUNDS AND COMPOSITIONS FOR TREATING CONDITIONS ASSOCIATED WITH NLRP ACTIVITY” (Novartis AG, priority 2018, published 2023).

Structures are written as SMILES. Bounds are passed on as bounds.

What is called IC50 is the concentration at which inhibition is half-maximal.

In one assay the test system is IL-1β production in PMA-differentiated THP-1 cells. Briefly: IL-1β production in PMA-differentiated THP-1 cells stimulated with gramicidin (hTHP-1 assay, 2% fetal bovine serum). It is filed as cell-based. The settings on record: Homo sapiens, Table 2, hTHP-1 assay containing 2% fetal bovine serum, average, read-out: hTHP-1 IC50 (Average IC50 of compounds in hTHP-1 assay). The method, then:
Procedure 1: IL-1β production in PMA-differentiated THP-1 cells stimulated with Gramicidin.
THP-1 cells were purchased from the American Type Culture Collection and sub-cultured according to instructions from the supplier. Prior to experiments, cells were cultured in complete RPMI 1640 (containing 10% heat inactivated FBS, penicillin (100 units/ml) and streptomycin (100 μg/ml)), and maintained in log phase prior to experimental setup. Prior to the experiment THP-1 were treated with PMA (Phorbol 12-myristate 13-acetate) (20 ng/ml) for 16-18 hours. Compounds were dissolved in dimethyl sulfoxide (DMSO) to generate a 30 mM stock. On the day of the experiment the media was removed and adherent cells were detached with trypsin for 5 minutes. Cells were then harvested, washed with complete RPMI 1640, spun down, resuspended in RPMI 1640 (containing 2% heat inactivated FBS, penicillin (100 units/ml) and streptomycin (100 μg/ml). The cells were plated in a 384-well plate at a density of 50,000 cells/well (final assay volume 50 μl). Compounds were first dissolved in assay medium to obtain a 5× top concentration of 500 μM. 10 step dilutions (1:3) were then undertaken in assay medium containing 1.67% DMSO. 5× compound solutions were added to the culture medium to achieve desired final concentration (e.g. 100, 33, 11, 3.7, 1.2, 0.41, 0.14, 0.046, 0.015, 0.0051, 0.0017 μM). Final DMSO concentration was at 0.37%. Cells were incubated with compounds for 1 hour and then stimulated with gramicidin (5 μM) (Enzo) for 2 hours. Plates were then centrifuged at 340 g for 5 min. Cell free supernatant (40 μL) was collected using a 96-channel PlateMaster (Gilson) and the production of IL-1β was evaluated by HTRF (cisbio). A vehicle only control and a dose titration of CRID3 (100-0.0017 μM) were run concurrently with each experiment. Data was normalized to vehicle-treated samples (equivalent to 0% inhibition) and CRID3 at 100 μM (equivalent to 100% inhibition).
(§1) 1.1 Cell Culture • 1) Culture THP-1 cells in the complete RPMI-1640 medium with 10% FBS at 37° C., 5% CO2. • 2) Passage the cells every 3 days by inoculating 3×10^5 cells per ml.
(§2) 1.2 Compound Preparation • Prepare the 3-fold serial dilution of the compounds with DMSO in a 384-well LDV Microplate using TECAN EVO system to generate the compound source plate with 10 concentrations. Top concentration is 30 mM.
(§3) 1.3 Cell Preparation • 1) Centrifuge THP-1 cells at 350 g for 5 min. • 2) Re-suspend cells with complete RMPI-1640 medium, and count cells. • 3) Seed cells in T225 flask, about 2.5×10^7 per flask, treat cells with 20 ng/ml PMA (final DMSO concentration<1%). • 4) Incubate overnight.
1.4 THP-1 Stimulation • 1) Wash adherent THP-1 cells with PBS, and detach cells with 4 ml trypsin for T225 flask. • 2) Centrifuge cells at 350 g for 5 min, re-suspend cells with RPMI-1640 containing 2% FBS and count cells with trypan blue. • 3) Transfer 50 nl/well the serial dilution of test compound to 384-well plate by Echo; For the high control and first point of CRID3 (MCC950), transfer 165 nl, then backfill to make the DMSO concentration is consistent in all wells, the plate layout is as below. • 4) Seed 50k cells in 40 ul RPMI-1640 with 2% FBS per well in 384-well plate. • 5) Incubate for 1 h at 37′C, 5% CO2. • 6) Prepare 5× gramicidin, add 10 μl per well, the final concentration is 5 μM, incubate for 2 hrs at 37° C., 5% CO2. • 7) Centrifuge at 350 g for 1 min. • 8) Pipet 16 μl supernatant by apricot, and transfer into white 384 proxiplate. FIG. 3 depicts the layout of the plates: HC: 100 μM CRID3 (MCC950)+5 μM gramicidin LC: 5 μM Gramicidin.
1.5 IL-1β detection • 1) Homogenize the 5× diluent #5 with a vortex and add 1 volume of stock solution in 4 volumes of distilled water. • 2) Thaw 20× stock solution of anti-IL1β-Cryptate-antibody and anti-IL1β XL-antibody. […]
Take `O=C(Nc1c2c(cc3c1CC3)CCC2)NS(=O)(=O)c1cnn2c1OC[C@H](O)C2` [Compound 402, (R)-6-hydroxy-N-((2,4,5,6-tetrahydro-1H-cyclobuta[f]inden-3-yl)carbamoyl)-6,7-dihydro-5H-pyrazolo[5,1-b][1,3]oxazine-3-sulfonamide]: the IC50 fell in the range of 40 to 200 nM. Regarding `O=C(Nc1c2c(nc3c1CCC3)CCC2)NS(=O)(=O)c1cnn2c1OCCC2` [Compound 12, Sodium ((6,7-dihydro-5H-pyrazolo[5,1-b][1,3]oxazin-3-yl)sulfonyl)((1,2,3,5,6,7-hexahydrodicyclopenta[b,e]pyridin-8-yl)carbamoyl)amide], the IC50 was 200 to 1000 nM. `O=C(Nc1c2c(cc3c1CCC3)CCC2)NS(=O)(=O)c1cnn2c1OC[C@H](OC(=O)Nc1c3c(cc4c1CCC4)CCC3)C2` [Compound 403, (R)-3-(N-((1,2,3,5,6,7-hexahydro-s-indacen-4-yl)carbamoyl)sulfamoyl)-6,7-dihydro-5H-pyrazolo[5,1-b][1,3]oxazin-6-yl (1,2,3,5,6,7-hexahydro-s-indacen-4-yl)carbamate]: the half-maximal inhibitory concentration (IC50) fell in the range of 5000 to 30000 nM. As to `O=C(Nc1cc2c(c3c1CCC3)CCC2)NS(=O)(=O)c1cnn2c1OCCC2` [Compound 10, N-((1,2,3,6,7,8-hexahydro-as-indacen-4-yl)carbamoyl)-6,7-dihydro-5H-pyrazolo[5,1-b][1,3]oxazine-3-sulfonamide], the IC50 lay in the range of 1000 to 5000 nM. `CC1(C)CCc2c1nc1c(c2NC(=O)NS(=O)(=O)c2cnn3c2OCCC3)CCC1` [Compound 14]: the IC50 was in the range of 1000 to 5000 nM. In the case of `O=C(Nc1c2c(cc3c1CC3)CC2)NS(=O)(=O)c1cnn2c1OCCC2` [Compound 9, N-(tricyclo[6.2.0.03,6]deca-1,3(6),7-trien-2-ylcarbamoyl)-6,7-dihydro-5H-pyrazolo[5,1-b][1,3]oxazine-3-sulfonamide], the half-inhibitory concentration (IC50) lay in the range of 40 to 200 nM. The same measure, in the same setting: next, `CC1CCc2c1nc1c(c2NC(=O)NS(=O)(=O)c2cnn3c2OCCC3)CCC1` (stereo not drawn) [Compound 13, Sodium ((6,7-dihydro-5H-pyrazolo[5,1-b][1,3]oxazin-3-yl)sulfonyl)((3-methyl-1,2,3,5,6,7-hexahydrodicyclopenta[b,e]pyridin-8-yl)carbamoyl)amide]: 200 to 1000 nM; `Cc1c(C2CC2)nc2c(c1NC(=O)NS(=O)(=O)c1cnn3c1OCCC3)CCC2` [Compound 16, Sodium ((2-cyclopropyl-3-methyl-6,7-dihydro-5H-cyclopenta[b]pyridin-4-yl)carbamoyl)((6,7-dihydro-5H-pyrazolo[5,1-b][1,3]oxazin-3-yl)sulfonyl)amide]: 1000 to 5000 nM. Consider `O=C(Nc1c2c(nc3c1CCC31CC1)CCC2)NS(=O)(=O)c1cnn2c1OCCC2` [Compound 15, Sodium ((6,7-dihydro-5H-pyrazolo[5,1-b][1,3]oxazin-3-yl)sulfonyl)((1′,5′,6′,7′-tetrahydro-2′H-spiro[cyclopropane-1,3′-dicyclopenta[b,e]pyridin]-8′-yl)carbamoyl)amide], for which the IC50 lay within 1000 to 5000 nM. As to `O=C(Nc1c2c(cc3c1CC3)CCC2)NS(=O)(=O)c1cnn2c1OCCC2` [Compound 8, N-((2,4,5,6-tetrahydro-1H-cyclobuta[f]inden-3-yl)carbamoyl)-6,7-dihydro-5H-pyrazolo[5,1-b][1,3]oxazine-3-sulfonamide], the IC50 is 200 to 1000 nM.

On to `CN[C@H]1COc2c(S(=O)(=O)NC(=O)Nc3c4c(cc5c3CC5)CCC4)cnn2C1` [Compound 401, (R)-6-(methylamino)-N-((2,4,5,6-tetrahydro-1H-cyclobuta[f]inden-3-yl)carbamoyl)-6,7-dihydro-5H-pyrazolo[5,1-b][1,3]oxazine-3-sulfonamide], for which the half-maximal inhibitory concentration (IC50) is under 8 nM. Take `C[C@@H]1CCc2c1nc1c(c2NC(=O)NS(=O)(=O)c2cnn3c2OCCC3)CCC1` [Compound 404]: the IC50 was in the range of 200 to 1000 nM.

The same assay, now with this note: Homo sapiens, Table 3, hTHP-1 assay containing 2% fetal bovine serum, average, read-out: hTHP-1 IC50 (Average IC50 of compounds in hTHP-1 assay).
As for `CC(C)n1ccc(S(=O)(=O)NC(=O)Nc2c3c(cc4c2CC4)CCC3)n1` [Compound 302, 1-Isopropyl-N-((2,4,5,6-tetrahydro-1H-cyclobuta[f]inden-3-yl)carbamoyl)-1H-pyrazole-3-sulfonamide], the 50% inhibitory concentration (IC50) fell in the range of 1000 to 5000 nM.

As for `CC(C)(O)c1coc(S(=O)(=O)NC(=O)Nc2c3c(cc4c2CC4)CCC3)c1` [Compound 301, 4-(2-Hydroxypropan-2-yl)-N-((2,4,5,6-tetrahydro-1H-cyclobuta[f]inden-3-yl)carbamoyl)furan-2-sulfonamide], the IC50 lay in the range of 40 to 200 nM.

For another assay the test system is unchanged. Nature of the assay: hTHP-1 assay containing 10% fetal bovine serum (IL-1β production, gramicidin stimulation). It is filed as cell-based. The conditions noted are these: Homo sapiens, Table 4, average, read-out: hTHP-1 IC50 in 10% FBS (Average IC50 of compounds in hTHP-1 assay). The method, then:
as §1, §2, §3
FIG. 3 depicts the layout of the plates: HC: 100 μM CRID3 (MCC950)+5 μM gramicidin LC: 5 μM Gramicidin.
1.5 IL-1β detection • 1) Homogenize the 5× diluent #5 with a vortex and add 1 volume of stock solution in 4 volumes of distilled water. • 2) Thaw 20× stock solution of anti-IL1β-Cryptate-antibody and anti-IL1β XL-antibody. Dilute these two antibodies to 1× with detection buffer #3. • 3) Pre-mix the two ready-to-use antibody solutions just prior to use. • 4) Dispense 4 ul of pre-mixed Anti-IL1β antibodies working solution into all wells. • 5) Seal the plate and incubate overnight at 4° C. • 6) Read the cell plate using EnVison and plot Readout vs. the test compound concentration to calculate the IC50.
• 1. IC50 of compounds can be calculated using the following formulas
% inhibition=100−100×[HCave−Readout/(HCave−LCave)] Formula for IC50 • 2. Fit the normalized data in a dose-response manner using XLfit, and calculate the compound concentration.
In the case of `CCn1cc(F)c(S(=O)(=O)NC(=O)Nc2c3c(cc4c2CC4)CCC3)n1` [Example 18, 1-Ethyl-4-fluoro-N-((2,4,5,6-tetrahydro-1H-cyclobuta[f]inden-3-yl)carbamoyl)-1H-pyrazole-3-sulfonamide], the IC50 is 200 to 1000 nM. Turning to `CCn1cc(F)c(S(=O)(=O)NC(=O)Nc2c3c(cc4c2CCC4)CCC3)n1` [Example 16, 1-Ethyl-4-fluoro-N-((1,2,3,5,6,7-hexahydro-s-indacen-4-yl)carbamoyl)-1H-pyrazole-3-sulfonamide], the IC50 was in the range of 200 to 1000 nM. Take `CCn1ccc(S(=O)(=O)NC(=O)Nc2c3c(cc4c2CCC4)CCC3)n1` [Example 17, 1-Ethyl-N-((1,2,3,5,6,7-hexahydro-s-indacen-4-yl)carbamoyl)-1H-pyrazole-3-sulfonamide]: the half-inhibitory concentration (IC50) is 1000 to 5000 nM. Turning to `CCn1ccc(S(=O)(=O)NC(=O)Nc2c3c(cc4c2CC4)CCC3)n1` [Example 19, 1-Ethyl-N-((2,4,5,6-tetrahydro-1H-cyclobuta[f]inden-3-yl)carbamoyl)-1H-pyrazole-3-sulfonamide], the 50% inhibitory concentration (IC50) lay within 200 to 1000 nM.
